Common to all, as to assay type: functional
In one test the test system is Candida tropicalis. Nature of the test: Antifungal activity against Candida tropicalis after 24 hrs by serial dilution method.
The test system of a further test is Aspergillus fumigatus. Nature of the test: Antifungal activity against Aspergillus fumigatus after 7 days by serial dilution method. The note with it: 168 h.
A further test has as its system Candida albicans. Description: Antifungal activity against Candida albicans after 24 hrs by serial dilution method.
For another test, the system named is Trichophyton rubrum. Description: Antifungal activity against Trichophyton rubrum after 7 days by serial dilution method. The note with it: 168 h.
The subject of a further test is Pichia kudriavzevii. Description: Antifungal activity against Candida krusei after 24 hrs by serial dilution method.
The test system of the next test is Candida parapsilosis. Description: Antifungal activity against Candida parapsilosis after 24 hrs by serial dilution method. The note with it: Lodderomyces parapsilosis.
Another test relates to Cryptococcus neoformans. Nature of the test: Antifungal activity against Cryptococcus neoformans after 72 hrs by serial dilution method.

Values after ≈ are worked out from the molar mass of the structure shown. Bridge positions count the residues as written; N and C are the ends. Square brackets hold non-standard residues; d marks the D form. Peptide text beside a SMILES is read from it. * marks the point of attachment. pTerphenylCO(4''-OnC5H11) = CCCCCOc1ccc(-c2ccc(-c3ccc(C(=O)*)cc3)cc2)cc1; 2Naphthoyl(6-heptyloxy) = CCCCCCCOc1ccc2cc(C(=O)*)ccc2c1; 2Naphthoyl(6-octyloxy) = CCCCCCCCOc1ccc2cc(C(=O)*)ccc2c1; X2 = CCCCCCCOc1ccc(-c2ccc(-c3ccc(C(=O)*)cc3)cc2)cc1; X1 = CCCOc1ccc(-c2ccc(-c3ccc(C(=O)*)cc3)cc2)cc1; Pro(4S-NH2) = N[C@@H]1CN[C@H](C(=O)O)C1; hTyr = N[C@@H](CCc1ccc(O)cc1)C(=O)O; Orn = NCCC[C@H](N)C(=O)O

A word on the MIC80: it is an inhibitory concentration at the 80% level, which refers to growth in some studies and to a panel of isolates in others. Higher therefore signals lower susceptibility. Consider `CCCCCCCOc1ccc2cc(C(=O)N[C@H]3CCCNC(=O)[C@@H]4C[C@H](N)CN4C(=O)[C@H]([C@H](C)O)NC(=O)[C@H](CCc4ccc(O)cc4)NC(=O)[C@@H]4C[C@H](N)CN4C(=O)[C@H]([C@@H](C)O)NC3=O)ccc2c1.Cc1ccc(S(=O)(=O)O)cc1`, for which the MIC80 was 64 µg/mL in the test on Candida tropicalis; greater than 64 µg/mL in the test with Aspergillus fumigatus; 2 µg/mL against Candida albicans; greater than 64 µg/mL against Trichophyton rubrum; 8 µg/mL in the test on Pichia kudriavzevii; 32 µg/mL with Candida parapsilosis. In addition, the MIC80 with Cryptococcus neoformans is greater than 64 µg/mL.
Turning to `CCCCCCCOc1ccc2cc(C(=O)N[C@H]3CCCNC(=O)[C@@H]4C[C@H](N)CN4C(=O)[C@H](CCCCN)NC(=O)[C@H](CCc4ccc(O)cc4)NC(=O)[C@@H]4CCCN4C(=O)[C@H](C(C)C)NC3=O)ccc2c1.Cc1ccc(S(=O)(=O)O)cc1` ({2Naphthoyl(6-heptyloxy)}-[Orn]VP[hTyr]K[Pro(4S-NH2)]; lactam 1-C), the MIC80 amounted to 32 µg/mL against Candida tropicalis; 1 µg/mL against Aspergillus fumigatus; 0.5 µg/mL in the test on Candida albicans; 32 µg/mL in the test with Trichophyton rubrum; 2 µg/mL with Pichia kudriavzevii; 4 µg/mL with Candida parapsilosis. The compound also had an MIC80 against Cryptococcus neoformans of 32 µg/mL.
On to `CCCCCCCCOc1ccc2cc(C(=O)N[C@H]3CCCNC(=O)[C@@H]4C[C@H](N)CN4C(=O)[C@H](CCCCN)NC(=O)[C@H](CCc4ccc(O)cc4)NC(=O)[C@@H]4CCCN4C(=O)[C@H]([C@@H](C)O)NC3=O)ccc2c1.Cc1ccc(S(=O)(=O)O)cc1` ({2Naphthoyl(6-octyloxy)}-[Orn]TP[hTyr]K[Pro(4S-NH2)]; lactam 1-C), for which the MIC80 with Candida tropicalis was 32 µg/mL; against Aspergillus fumigatus, 1 µg/mL; against Candida albicans it was 0.5 µg/mL; with Trichophyton rubrum it was 32 µg/mL; against Pichia kudriavzevii, 1 µg/mL; in the test with Candida parapsilosis it was 4 µg/mL. Moreover, in the test on Cryptococcus neoformans, the MIC80 was determined as 32 µg/mL.
As to `CCCCCCCOc1ccc(-c2ccc(-c3ccc(C(=O)N[C@H]4CCCNC(=O)[C@@H]5C[C@H](N)CN5C(=O)[C@H](CCCCN)NC(=O)[C@H](CCc5ccc(O)cc5)NC(=O)[C@@H]5CCCN5C(=O)[C@H]([C@@H](C)O)NC4=O)cc3)cc2)cc1.Cc1ccc(S(=O)(=O)O)cc1` (X2-[Orn]TP[hTyr]K[Pro(4S-NH2)]; lactam 1-C), the MIC80 is 8 µg/mL with Candida tropicalis; 1 µg/mL with Aspergillus fumigatus; 0.25 µg/mL with Candida albicans; 16 µg/mL against Trichophyton rubrum; 1 µg/mL in the test on Pichia kudriavzevii; 2 µg/mL against Candida parapsilosis. In the test with Cryptococcus neoformans, this compound returned an MIC80 of 16 µg/mL.
For the compound `CCCCCOc1ccc(-c2ccc(-c3ccc(C(=O)N[C@H]4CCCNC(=O)[C@@H]5C[C@H](N)CN5C(=O)[C@H](CCCCN)NC(=O)[C@H](CCc5ccc(O)cc5)NC(=O)[C@@H]5CCCN5C(=O)[C@H](C(C)C)NC4=O)cc3)cc2)cc1.Cc1ccc(S(=O)(=O)O)cc1` ({pTerphenylCO(4''-OnC5H11)}-[Orn]VP[hTyr]K[Pro(4S-NH2)]; lactam 1-C), the MIC80 against Candida tropicalis came to 16 µg/mL; in the test on Aspergillus fumigatus it was 1 µg/mL; with Candida albicans it was 1 µg/mL; with Trichophyton rubrum, 32 µg/mL; in the test on Pichia kudriavzevii, 2 µg/mL; in the test with Candida parapsilosis, 4 µg/mL. The MIC80 with Cryptococcus neoformans was 32 µg/mL.
For `CCCCCCCOc1ccc2cc(C(=O)N[C@H]3CCCNC(=O)[C@@H]4C[C@H](N)CN4C(=O)[C@H](CCCN)NC(=O)[C@H](CCc4ccc(O)cc4)NC(=O)[C@@H]4CCCN4C(=O)[C@H](C(C)C)NC3=O)ccc2c1.Cc1ccc(S(=O)(=O)O)cc1` ({2Naphthoyl(6-heptyloxy)}-[Orn]VP[hTyr][Orn][Pro(4S-NH2)]; lactam 1-C), the MIC80 was 32 µg/mL against Candida tropicalis; 0.5 µg/mL against Aspergillus fumigatus; 1 µg/mL in the test with Candida albicans; 32 µg/mL against Trichophyton rubrum; 2 µg/mL against Pichia kudriavzevii; 4 µg/mL against Candida parapsilosis. In addition, in the test on Cryptococcus neoformans, the MIC80 was 32 µg/mL.
Consider `CCCOc1ccc(-c2ccc(-c3ccc(C(=O)N[C@H]4CCCNC(=O)[C@@H]5C[C@H](N)CN5C(=O)[C@H](CCCCN)NC(=O)[C@H](CCc5ccc(O)cc5)NC(=O)[C@@H]5CCCN5C(=O)[C@H](C(C)C)NC4=O)cc3)cc2)cc1.Cc1ccc(S(=O)(=O)O)cc1` (X1-[Orn]VP[hTyr]K[Pro(4S-NH2)]; lactam 1-C), for which the MIC80 in the test on Candida tropicalis amounted to 16 µg/mL; in the test with Aspergillus fumigatus, 0.25 µg/mL; in the test on Candida albicans it was 0.5 µg/mL; against Trichophyton rubrum, 16 µg/mL; in the test on Pichia kudriavzevii, 2 µg/mL; in the test with Candida parapsilosis, 4 µg/mL. Moreover, the MIC80 with Cryptococcus neoformans is 32 µg/mL.
Regarding `CCCCCOc1ccc2cc(C(=O)N[C@H]3CCCNC(=O)[C@@H]4C[C@H](N)CN4C(=O)[C@H]([C@H](C)O)NC(=O)[C@H](CCc4ccc(O)cc4)NC(=O)[C@@H]4C[C@H](N)CN4C(=O)[C@H]([C@@H](C)O)NC3=O)ccc2c1.Cc1ccc(S(=O)(=O)O)cc1`, the MIC80 was greater than 64 µg/mL in the test on Candida tropicalis; greater than 64 µg/mL against Aspergillus fumigatus; 2 µg/mL in the test with Candida albicans; greater than 64 µg/mL in the test with Trichophyton rubrum; 8 µg/mL against Pichia kudriavzevii; 32 µg/mL in the test with Candida parapsilosis. Also, the MIC80 against Cryptococcus neoformans is greater than 64 µg/mL.
As for `CCCOc1ccc(-c2ccc(-c3ccc(C(=O)N[C@H]4CCCNC(=O)[C@@H]5C[C@H](N)CN5C(=O)[C@H](CCCN)NC(=O)[C@H](CCc5ccc(O)cc5)NC(=O)[C@@H]5CCCN5C(=O)[C@H](C(C)C)NC4=O)cc3)cc2)cc1.Cc1ccc(S(=O)(=O)O)cc1` (X1-[Orn]VP[hTyr][Orn][Pro(4S-NH2)]; lactam 1-C), the MIC80 against Candida tropicalis was 8 µg/mL; in the test with Aspergillus fumigatus it was 0.5 µg/mL; against Candida albicans, 0.5 µg/mL; against Trichophyton rubrum, 16 µg/mL; with Pichia kudriavzevii, 2 µg/mL; against Candida parapsilosis, 4 µg/mL. The compound also registered an MIC80 in the test on Cryptococcus neoformans of 32 µg/mL.
In the case of `CCCCCCCCOc1ccc2cc(C(=O)N[C@H]3CCCNC(=O)[C@@H]4C[C@H](N)CN4C(=O)[C@H]([C@H](C)O)NC(=O)[C@H](CCc4ccc(O)cc4)NC(=O)[C@@H]4C[C@H](N)CN4C(=O)[C@H]([C@@H](C)O)NC3=O)ccc2c1.Cc1ccc(S(=O)(=O)O)cc1`, the MIC80 was 32 µg/mL in the test with Candida tropicalis; greater than 64 µg/mL against Aspergillus fumigatus; 2 µg/mL in the test with Candida albicans; greater than 64 µg/mL in the test on Trichophyton rubrum; 8 µg/mL in the test with Pichia kudriavzevii; 32 µg/mL with Candida parapsilosis. The MIC80 in the test on Cryptococcus neoformans was greater than 64 µg/mL.
`CCCCCOc1ccc(-c2ccc(-c3ccc(C(=O)N[C@H]4CCCNC(=O)[C@@H]5C[C@H](N)CN5C(=O)[C@H](CCCN)NC(=O)[C@H](CCc5ccc(O)cc5)NC(=O)[C@@H]5CCCN5C(=O)[C@H]([C@@H](C)O)NC4=O)cc3)cc2)cc1.Cc1ccc(S(=O)(=O)O)cc1` ({pTerphenylCO(4''-OnC5H11)}-[Orn]TP[hTyr][Orn][Pro(4S-NH2)]; lactam 1-C): the MIC80 in the test on Candida tropicalis was found to be 4 µg/mL; in the test with Aspergillus fumigatus it was 1 µg/mL; with Candida albicans it was 0.25 µg/mL; against Trichophyton rubrum it was 64 µg/mL; in the test on Pichia kudriavzevii, 0.5 µg/mL; in the test with Candida parapsilosis, 8 µg/mL. Further, the MIC80 in the test with Cryptococcus neoformans is 64 µg/mL.
For the compound `CCCOc1ccc(-c2ccc(-c3ccc(C(=O)N[C@H]4CCCNC(=O)[C@@H]5C[C@H](N)CN5C(=O)[C@H](CCCCN)NC(=O)[C@H](CCc5ccc(O)cc5)NC(=O)[C@@H]5CCCN5C(=O)[C@H]([C@@H](C)O)NC4=O)cc3)cc2)cc1.Cc1ccc(S(=O)(=O)O)cc1` (X1-[Orn]TP[hTyr]K[Pro(4S-NH2)]; lactam 1-C), the MIC80 with Candida tropicalis is 16 µg/mL; in the test with Aspergillus fumigatus it was 1 µg/mL; in the test on Candida albicans, 0.25 µg/mL; against Trichophyton rubrum, 64 µg/mL; in the test with Pichia kudriavzevii, 1 µg/mL; with Candida parapsilosis, 2 µg/mL. In the test on Cryptococcus neoformans, this compound had an MIC80 of 16 µg/mL.
Consider `CC[C@H](C)C[C@H](C)CCCCCCCCC(=O)N[C@H]1C[C@@H](O)[C@@H](NCCN)NC(=O)[C@@H]2[C@@H](O)CCN2C(=O)[C@H]([C@H](O)CCN)NC(=O)[C@H]([C@H](O)[C@@H](O)c2ccc(O)cc2)NC(=O)[C@@H]2C[C@@H](O)CN2C(=O)[C@H]([C@@H](C)O)NC1=O` [CASPOFUNGIN], for which the MIC80 against Candida tropicalis is 4 µg/mL (≈ 3.66 µM); with Aspergillus fumigatus, 1 µg/mL (≈ 0.915 µM); against Candida albicans, 0.5 µg/mL (≈ 0.457 µM); in the test on Trichophyton rubrum, 16 µg/mL (≈ 14.6 µM); against Pichia kudriavzevii, 0.25 µg/mL (≈ 0.229 µM); against Candida parapsilosis it was 1 µg/mL (≈ 0.915 µM). Moreover, the MIC80 in the test on Cryptococcus neoformans came out at 16 µg/mL (≈ 14.6 µM).
As to `CCCCCCCCOc1ccc2cc(C(=O)N[C@H]3CCCNC(=O)[C@@H]4C[C@H](N)CN4C(=O)[C@H](CCCCN)NC(=O)[C@H](CCc4ccc(O)cc4)NC(=O)[C@@H]4CCCN4C(=O)[C@H](C(C)C)NC3=O)ccc2c1.Cc1ccc(S(=O)(=O)O)cc1` ({2Naphthoyl(6-octyloxy)}-[Orn]VP[hTyr]K[Pro(4S-NH2)]; lactam 1-C), the MIC80 stood at 32 µg/mL in the test on Candida tropicalis; 1 µg/mL against Aspergillus fumigatus; 1 µg/mL against Candida albicans; 32 µg/mL against Trichophyton rubrum; 2 µg/mL with Pichia kudriavzevii; 4 µg/mL against Candida parapsilosis. In addition, the MIC80 against Cryptococcus neoformans was determined as 32 µg/mL.
Regarding `CCCCCCCOc1ccc(-c2ccc(-c3ccc(C(=O)N[C@H]4CCCNC(=O)[C@@H]5C[C@H](N)CN5C(=O)[C@H](CCCN)NC(=O)[C@H](CCc5ccc(O)cc5)NC(=O)[C@@H]5CCCN5C(=O)[C@H]([C@@H](C)O)NC4=O)cc3)cc2)cc1.Cc1ccc(S(=O)(=O)O)cc1` (X2-[Orn]TP[hTyr][Orn][Pro(4S-NH2)]; lactam 1-C), the MIC80 with Candida tropicalis turned out to be 8 µg/mL; in the test with Aspergillus fumigatus it was 0.5 µg/mL; in the test with Candida albicans, 0.25 µg/mL; in the test on Trichophyton rubrum it was 16 µg/mL; in the test on Pichia kudriavzevii, 1 µg/mL; against Candida parapsilosis, 2 µg/mL. The MIC80 in the test with Cryptococcus neoformans is 16 µg/mL.
As for `CCCCCCCOc1ccc2cc(C(=O)N[C@H]3CCCNC(=O)[C@@H]4C[C@H](N)CN4C(=O)[C@H]([C@H](C)O)NC(=O)[C@H](CCc4ccc(O)cc4)NC(=O)[C@@H]4C[C@H](N)CN4C(=O)[C@H](CO)NC3=O)ccc2c1.Cc1ccc(S(=O)(=O)O)cc1`, the MIC80 with Candida tropicalis was 32 µg/mL; with Aspergillus fumigatus, greater than 64 µg/mL; against Candida albicans, greater than 64 µg/mL; against Trichophyton rubrum it was 64 µg/mL; against Pichia kudriavzevii it was 8 µg/mL; in the test with Candida parapsilosis, 32 µg/mL. The same compound registered an MIC80 against Cryptococcus neoformans greater than 64 µg/mL.

The record behind these values is ChEMBL document CHEMBL1949505, “Total synthesis and structure-activity relationships of new echinocandin-like antifungal cyclolipohexapeptides” (2012).
